Reference: publication PMC5099944, “Design, synthesis and biological evaluation of hybrids of β-carboline and salicylic acid as potential anticancer and apoptosis inducing agents” (Scientific Reports, 2016)
pIC50: −log10 of the molar value.

What was measured:
LO2 cells = assay: MTT assay, proliferation of normal liver LO2 cells; format: cell-based, human
Description: Given the strong growth inhibitory activity of 8h in vitro, it was profiled for antitumor selectivity by examining its inhibitory effects on the growth of SMMC-7721 cells and LO2 cells (human hepatocellular normal cells).
Figure 3 (A) Inhibitory effects of 8h on the proliferation of SMMC-7721 and LO2 cells. Cells were incubated with the indicated concentrations of 8h for 48 h. Cell proliferation was assessed using the MTT assay. Data are means ± SD of the inhibition (%) from three independent experiments. (B) Inhibitory effects of 5h, 8h, and SA or the vehicle control against SMMC-7721 and LO2 cells. SMMC-7721 and LO2 cells were incubated with the indicated compounds at 25 μM for 48 h, and cell proliferation was assessed by the MTT assay. Data are means ± SD of the inhibition (%) from three independent experiments. *P < 0.01 versus control of SMMC-7721, ^#P < 0.01 inhibitory effects of 8h in SMMC-7721 versus LO2 cells.
(§1) Hepatocellular carcinoma cells (SMMC-7721 and Hep G2), Human colon cancer cell lines (HCT116), human bladder carcinoma cells (EJ) or human lung cancer cells (H460) at 10^4 cells per well were cultured in 10% FBS DMEM in 96-well flat-bottom microplates overnight. The cells were incubated in triplicate with, or without, different concentrations of each test compound for 48 h. During the last 4 h incubation, 30 μL of tetrazolium dye (MTT) solution (5 mg mL^−1) was added to each well. The resulting MTT-formazan crystals were dissolved in 150 μL DMSO, and absorbance was measured spectrophotometrically at 570 nm using an ELISA plate reader. The inhibition induced by each test compound at the indicated concentrations was expressed as a percentage. The concentration required for 50% inhibition (IC50) was calculated using the software (GraphPadPrism Version 4.03).

Hep G2 cells = assay: MTT assay, proliferation of Hep G2 cells; format: cell-based; details: Homo sapiens, HepG2, 48 h, read-out: In vitro cytotoxicity (IC50) Hep G2
Description: (§2) The in vitro antitumor activities of the synthesized compounds 7a-l and 8a-l against five human cancer cells were evaluated in MTT assays using 5-fluorouracil (5-FU) and harmine as positive controls. These cells are human hepatocellular carcinoma cells (SMMC-7721 and Hep G2), human colon cancer cell lines (HCT116), human bladder carcinoma cells (EJ), and human lung cancer cells (H460).
as §1

[1] = system: human cancer cells (SMMC-7721, Hep G2, HCT116, EJ, H460); assay: MTT assay, summary statements across several human cancer cell lines; format: cell-based
Description: as §2, §1

SMMC-7721 cells = assay: MTT assay, proliferation of SMMC-7721 cells; format: cell-based, human; details: Homo sapiens
Description: as §2, §1

H460 cells = assay: MTT assay, proliferation of H460 cells; format: cell-based; details: NCI-H460, 48 h, H460 human lung cancer cells, read-out: In vitro cytotoxicity (IC50) H460
Description: as §2, §1

pIC50 ([1]; Homo sapiens, SMMC-7721, Hep G2, HCT116, MTT, read-out: IC50 values for liver and colon cancer cells growth (range over cell lines)): 5.08 to 5.16 | IC50 fold lower than that of 5-FU ([1]; liver and colon cancer cells): 4~6 fold
Compound: Cc1nc(C(=O)NCCCCCNC(=O)c2ccccc2O)cc2c1[nH]c1ccccc12 [8h, N-(5-(2-Hydroxybenzamido)pentyl)-1-methyl-9H-pyrido[3,4-b]indole-3-carboxamide]
Inhibitory effect on LO2 cells (LO2 cells; 25 μM, 48 h, MTT assay): little inhibitory effects | pIC50 (LO2 cells; L02, MTT assay, 48 h, LO2 human hepatocellular normal cells, read-out: IC50 against liver normal LO2 cells): 4.26 | Selectivity: IC50 on SMMC-7721 fold lower than against LO2 cells (LO2 cells; SMMC-7721 vs LO2): 9 fold | Growth inhibitory activity on non-cancer LO2 cells (LO2 cells; concentrations up to 25 μM, 48 h, MTT): no apparent growth inhibitory activity | pIC50 (Hep G2 cells): 5.15 | pIC50 (SMMC-7721 cells; SMMC-7721, 48 h, read-out: In vitro cytotoxicity (IC50) SMMC-7721, MTT assay, 48 h, SMMC-7721 human hepatocellular carcinoma cells): 5.16 | inhibition at 25 µM (SMMC-7721 cells; SMMC-7721, 25 μM, 48 h, MTT assay, read-out: Inhibition of SMMC-7721 cell proliferation): ~90% | pIC50 (H460 cells): 4.88
